The results in this text go back to US11266643B2, “Triaryl compounds for treatment of PD-L1 diseases” (CHEMOCENTRYX, INC., priority 2019, dated 2022).

For the assay, the target named is human PD-L1 (Homo sapiens (Human), UniProt Q9NZQ7). Kind of assay: Enzyme-Linked Immunosorbent Assay (ELISA), PD-1/PD-L1 binding. As to the method: 96 Well plates were coated with […] of human PD-L1 (obtained from R&D) in PBS overnight at 4° C. The wells were then blocked with 2% BSA in PBS (W/V) with 0.05% TWEEN-20 for 1 hour at 37° C. The plates were washed 3 times with PBS/0.05% TWEEN-20 and the compounds were serial diluted (1:5) in dilution medium and added to the ELISA plates. Human PD-1 […] 0.31 μg/mL (ACRO Biosystems) were added and incubated for 1 hour at 37° C. then washed 3 times with PBS/0.05% TWEEN-20. A second block was performed with 2% BSA in PBS (W/V)/0.05% TWEEN-20 for 10 min at 37° C. and the plates were washed 3 times with PBS/0.05% TWEEN-20. Streptavidin-HRP was added for 1 hour at 37° C. then the plates were washed 3 times with PBS/0.05% TWEEN-20. TMB substrate was added and reacted for 20 min at 37° C. A stop solution (2 N aqueous H2SO4) was added. The absorbance was read at 450 nm using a micro-plate spectrophotometer.
Sequence of human PD-L1 (Q9NZQ7 19-239): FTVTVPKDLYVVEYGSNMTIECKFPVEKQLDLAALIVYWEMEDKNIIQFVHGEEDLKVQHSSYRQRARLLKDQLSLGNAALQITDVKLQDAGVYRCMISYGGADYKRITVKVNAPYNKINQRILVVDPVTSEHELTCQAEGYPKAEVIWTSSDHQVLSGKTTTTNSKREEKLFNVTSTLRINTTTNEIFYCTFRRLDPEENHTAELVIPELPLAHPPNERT
Using the methods described in the Examples above, the compounds in Table 2 were prepared & tested for biological activity using the ELISA method described above.
(In general: In an ELISA, binding on a coated surface is turned into a signal by an enzyme label.)

Setting [1] is: human PD-1/PD-L1 ELISA, plates coated with human PD-L1.
The mark [2] stands for this setting: plate-coated human PD-L1, biotinylated Human PD-1, absorbance at 450 nm.
The mark [3] stands for this setting: PD-1/PD-L1 ELISA, human PD-L1 coated plates, Table 1.

For `COc1cc(-c2cccc(-c3cccc(NC(=O)c4cncn(C)c4=O)c3C)c2C)cc(F)c1CN(C)C[C@H]1CCC(=O)N1` [Example 1.132], the IC50 under setting [1] fell in the range of 10 to 1000 nM.
As for `COc1cc(-c2cccc(-c3cccc(NC(=O)c4cn(C)c(=O)n(C)c4=O)c3C)c2C)cc(F)c1CN1CC(C(=O)O)C1` [Example 2.014], under setting [2], the IC50 was less than 10 nM.
The compound `COc1cc(-c2cccc(-c3cccc(NC(=O)c4nn(C)c(=O)n(C)c4=O)c3C)c2C)cc(F)c1CNCC(N)=O` [Example 1.064] yielded an IC50 under setting [1] of less than 10 nM.
For `COc1cc(-c2cccc(-c3cccc(Nc4nccc5nccnc45)c3Cl)c2C)cc(F)c1CNC[C@@H]1CCC(=O)N1` [Example 1.019], the IC50 under setting [1] was less than 10 nM.
For `COc1cc(-c2cccc(-c3cccc(Nc4nccc5nccnc45)c3C)c2C)cc(F)c1CNCCO` [Example 1.238], the IC50 under setting [3] is less than 10 nM.
Turning to `COc1cc(-c2cccc(-c3cccc(NC(=O)c4cn(C)c(=O)n(C)c4=O)c3C)c2C)cc(F)c1CN[C@H]1CCC[C@H]1O` [Example 1.147], under setting [1], the IC50 is less than 10 nM.
In turn, `COc1cc(-c2cccc(-c3cccc(NC(=O)c4cn(C)c(=O)n(C)c4=O)c3Cl)c2C)cc(F)c1CN[C@H]1CCC(=O)NC1` [Example 1.026] displayed an IC50 under setting [1] of less than 10 nM.
The compound `COc1cc(-c2cccc(-c3cccc(NC(=O)c4cccn(C)c4=O)c3C)c2C)cc(F)c1CNCCC(=O)O` [Example 1.282] returned an IC50 under setting [3] of less than 10 nM.
In turn, `COc1cc(-c2cccc(-c3cccc(NC(=O)c4nc5c(s4)CN(CCO)CC5)c3F)c2C)cc(F)c1CNCCO` [Example 1.400] showed an IC50 under setting [1] of less than 10 nM.
As to `COc1cc(-c2cccc(-c3cccc(NC(=O)c4ccccn4)c3C)c2C)cc(F)c1CN1CCC2(C1)NC(=O)NC2=O` (centres unmarked) [Example 1.362], the IC50 under setting [3] was 10 to 1000 nM.
`COc1cc(-c2cccc(-c3cccc(NC(=O)c4cccn(C)c4=O)c3C)c2C)cc(F)c1CN1CC(C(=O)O)C1` [Example 1.301] had an IC50 under setting [3] of less than 10 nM.
Take `CNCc1c(F)cc(-c2cccc(-c3cccc(NC(=O)c4nc5c(s4)CN(CCO)CC5)c3F)c2C)cc1OC` [Example 1.398]: under setting [1], the IC50 was less than 10 nM.
Regarding `COc1cc(-c2cccc(-c3cccc(NC(=O)c4cn(C)c(=O)n(C)c4=O)c3C)c2F)cc(F)c1CNCC(C)(C)C(N)=O` [Example 1.033], the IC50 under setting [1] was less than 10 nM.
Consider `COc1cc(-c2cccc(-c3cccc(NC(=O)c4c[nH]c(=O)n(C)c4=O)c3C)c2C)cc(F)c1CN[C@@H]1CNC(=O)C1` [Example 1.229], for which the IC50 under setting [3] was less than 10 nM.
Under setting [2], `COc1cc(-c2cccc(-c3cccc(NC(=O)c4cn(C)c(=O)n(C)c4=O)c3C)c2Cl)cc(F)c1CN[C@@H]1CCOC1` [Example 2.098] returned an IC50 of less than 10 nM.
With `COc1cc(-c2cccc(-c3cccc(NC(=O)c4cn(C)c(=O)n(C)c4=O)c3C)c2C)cc(F)c1CN[C@H]1COCC[C@@H]1O` [Example 1.001], the IC50 under setting [1] is less than 10 nM.
On the same count and under the same terms, the figure for `COc1cc(-c2cccc(-c3cccc(NC(=O)c4cn(C)c(=O)n(C)c4=O)c3C)c2C)cc(F)c1CN[C@@H]1CCOC1` [Example 1.038] is less than 10 nM; for `COc1cc(-c2cccc(-c3cccc(NC(=O)c4cn(C)c(=O)n(C)c4=O)c3Cl)c2C)cc(F)c1CN[C@@H]1CCC(=O)NC1` [Example 1.009] it is less than 10 nM.
Under setting [2], `COc1cc(-c2cccc(-c3cccc(NC(=O)c4c[nH]c(=O)n(C)c4=O)c3C)c2Cl)cc(F)c1CNCC1(C(N)=O)CC1` [Example 2.031] had a concentration for half-maximal inhibition (IC50) of less than 10 nM.
With `COc1cc(-c2cccc(-c3cccc(NC(=O)c4c[nH]c(=O)n(C)c4=O)c3C)c2C)cc(F)c1CNCCN` [Example 1.234], under setting [3], the IC50 was less than 10 nM.
The compound `COc1cc(-c2cccc(-c3cccc(NC(=O)c4ccc(C(=O)O)cn4)c3C)c2C)cc(F)c1CN` [Example 1.352] showed an IC50 under setting [3] of 10 to 1000 nM.
Regarding `COc1cc(-c2cccc(-c3cccc(NC(=O)c4cncn(C)c4=O)c3C)c2C)cc(F)c1CNC[C@@H]1CCC(=O)N1` [Example 1.211], the IC50 under setting [3] was less than 10 nM.
`COc1cc(-c2cccc(-c3cccc(NC(=O)c4c[nH]c(=O)n(C)c4=O)c3C)c2C)cc(F)c1CN1CCOCC1` [Example 1.235] returned an IC50 under setting [3] of 10 to 1000 nM.
As for `COc1cc(-c2cccc(-c3cccc(NC(=O)c4cncn(C)c4=O)c3C)c2C)cc(F)c1CNCCN1CCCC1=O` [Example 1.099], under setting [1], the IC50 was less than 10 nM.
For `COc1cc(-c2cccc(-c3cccc(NC(=O)c4ccc(C(=O)NCC(=O)O)cn4)c3C)c2C)cc(F)c1CN` [Example 1.305], the concentration for half-maximal inhibition (IC50) under setting [3] was less than 10 nM.
With `COc1cc(-c2cccc(-c3cccc(Nc4nccc5c4C(=O)N(C)CC5)c3C)c2C)cc(F)c1CNC(C)C` [Example 1.184], the IC50 under setting [1] lay in the range of 10 to 1000 nM.
For the compound `COc1cc(-c2cccc(-c3cccc(NC(=O)c4nn(C)c(=O)n(C)c4=O)c3C)c2C)cc(F)c1CNCCCC(N)=O` [Example 1.062], under setting [1], the IC50 is less than 10 nM.
Consider `COc1cc(-c2cccc(-c3cccc(NC(=O)c4c[nH]c(=O)n(C)c4=O)c3Cl)c2Cl)cc(F)c1CN[C@H]1CCOC[C@H]1OC` [Example 2.022], for which the IC50 under setting [2] was less than 10 nM.
Under setting [1], `COc1cc(-c2cccc(-c3cccc(NC(=O)c4c[nH]c(=O)n(C)c4=O)c3C)c2C)cc(F)c1CN[C@H]1COC[C@@H]1O` [Example 1.079] registered an IC50 of less than 10 nM.
In turn, `COc1cc(-c2cccc(-c3cccc(NC(=O)c4c[nH]c(=O)n(C)c4=O)c3C)c2C)cc(F)c1CN[C@H]1CNC(=O)C1` [Example 1.143] registered an IC50 under setting [1] of less than 10 nM.
Under setting [3], `COc1cc(-c2cccc(-c3cccc(NC(=O)c4c[nH]c(=O)n(C)c4=O)c3C)c2C)cc(F)c1CN(C)CCO` [Example 1.220] showed a concentration for half-maximal inhibition (IC50) of less than 10 nM.
With `COc1cc(-c2cccc(-c3cccc(NC(=O)c4ccncn4)c3C)c2C)cc(F)c1CNCCO` [Example 1.338], under setting [3], the IC50 is less than 10 nM.
For the compound `COc1cc(-c2cccc(-c3cccc(NC(=O)c4nn(C)c(=O)n(C)c4=O)c3C)c2C)cc(F)c1CNC[C@@H]1CCC(=O)N1C` [Example 1.056], the IC50 under setting [1] is less than 10 nM.
In turn, `COc1cc(-c2cccc(-c3cccc(NC(=O)c4ncc(C(N)=O)cn4)c3C)c2C)cc(F)c1CN` [Example 1.299] gave an IC50 under setting [3] of less than 10 nM.
As to `COc1cc(-c2cccc(-c3cccc(NC(=O)c4cn(C)c(=O)n(C)c4=O)c3C)c2C)cc(F)c1CN1CC2(CCNC2=O)C1` [Example 2.011], the IC50 under setting [2] is less than 10 nM.
In the case of `COc1cc(-c2cccc(-c3cccc(NC(=O)c4cn(C)c(=O)n(C)c4=O)c3C)c2C)cc(F)c1CNC[C@@H]1CCC(=O)N1` [Example 1.187], under setting [1], the IC50 was less than 10 nM.
For `COc1cc(-c2cccc(-c3cccc(NC(=O)c4cn(C)c(=O)n(C)c4=O)c3Cl)c2C)cc(F)c1CN[C@H]1CCOC[C@H]1O` [Example 2.103], the IC50 under setting [2] is less than 10 nM.
Consider `COc1cc(-c2cccc(-c3cccc(NC(=O)c4cn(C)c(=O)n(C)c4=O)c3C)c2Cl)cc(F)c1CN1CCC[C@@H](C(=O)O)C1` [Example 2.015], for which the IC50 under setting [2] was less than 10 nM.
Consider `COc1cc(-c2cccc(-c3cccc(NC(=O)c4nn(C)c(=O)n(C)c4=O)c3C)c2C)cc(F)c1CNC[C@H]1CCC(=O)N1` [Example 1.068], for which the IC50 under setting [1] was less than 10 nM.
In turn, `COc1cc(-c2cccc(-c3cccc(NC(=O)c4cnc(N)cn4)c3C)c2C)cc(F)c1CN1CC(C(=O)O)C1` [Example 1.332] came in with an IC50 under setting [3] of less than 10 nM.
`COc1cc(-c2cccc(-c3cccc(NC(=O)c4c[nH]c(=O)n(C)c4=O)c3C)c2C)cc(F)c1CN1CCC2(C1)NC(=O)NC2=O` (centres unmarked) [Example 1.257]: the IC50 under setting [3] lay in the range of 10 to 1000 nM.
Turning to `COc1cc(-c2cccc(-c3cccc(NC(=O)c4cncn(C)c4=O)c3C)c2C)cc(F)c1CNCC(=O)O` [Example 1.267], the IC50 under setting [3] was less than 10 nM.
In turn, `COc1cc(-c2cccc(-c3cccc(Nc4nccc5nccnc45)c3C)c2C)cc(F)c1CN[C@@H]1CCC[C@@H]1O` [Example 1.180] registered an IC50 under setting [1] of less than 10 nM.
Compound `COc1cc(-c2cccc(-c3cccc(NC(=O)c4ccncn4)c3C)c2C)cc(F)c1CNCC(=O)O` [Example 1.339] displayed an IC50 under setting [3] of 10 to 1000 nM.
With `COc1cc(-c2cccc(-c3cccc(NC(=O)c4c[nH]c(=O)n(C)c4=O)c3C)c2C)cc(F)c1CN[C@H]1CCNC1=O` [Example 1.135], the IC50 under setting [1] was in the range of 10 to 1000 nM.
As for `COc1cc(-c2cccc(-c3cccc(NC(=O)c4cn(C)c(=O)n(C)c4=O)c3Cl)c2Cl)cc(F)c1CN[C@H]1CCOC1` [Example 2.066], under setting [2], the IC50 was less than 10 nM.
Under setting [3], `COc1cc(-c2cccc(-c3cccc(NC(=O)c4c[nH]c(=O)n(C)c4=O)c3C)c2C)cc(F)c1CN1CC(C(=O)O)C1` [Example 1.283] had an IC50 of less than 10 nM.
`COc1cc(-c2cccc(-c3cccc(NC(=O)c4c[nH]c(=O)n(C)c4=O)c3Cl)c2Cl)cc(F)c1CN[C@H]1CCOC[C@H]1O` [Example 2.029]: the IC50 under setting [2] is less than 10 nM.
On to `COc1cc(-c2cccc(-c3cccc(Nc4cncc5nccnc45)c3C)c2C)cc(F)c1CNC[C@@H]1CCC(=O)N1` [Example 1.048], for which the IC50 under setting [1] was less than 10 nM.
The same measure, in the same setting: next, `COc1cc(-c2cccc(-c3cccc(Nc4nccc5nccnc45)c3Cl)c2C)cc(F)c1CNCC(C)(C)C(N)=O` [Example 1.022]: 10 to 1000 nM.
`COc1cc(-c2cccc(-c3cccc(Nc4nccc5nccnc45)c3C)c2C)cc(F)c1CNCC(N)=O` [Example 1.239] showed an IC50 under setting [3] of 10 to 1000 nM.
With `COc1cc(-c2cccc(-c3cccc(NC(=O)c4cn(C)c(=O)n(C)c4=O)c3Cl)c2Cl)cc(F)c1CN[C@@H]1COC[C@H]1O` [Example 2.075], the IC50 under setting [2] was less than 10 nM.
For the compound `COc1cc(-c2cccc(-c3cccc(NC(=O)c4ccccn4)c3F)c2C)cc(F)c1CN1CC(C(=O)O)C1` [Example 1.370], the IC50 under setting [3] lay within 10 to 1000 nM.

A word on the IC50: it is the midpoint of a concentration-inhibition curve. Low readings indicate higher potency, high ones lower potency.
